± gives the standard deviation of the averaged measurements.
How the values were obtained:
[1] = compound: COc1cc2ncnc(Nc3ccc(F)c(Cl)c3)c2cc1OCCCN1CCOCC1 [GEFITINIB]; test: surviving fraction relative to DMSO-only wells; higher = less growth inhibition; settings: exposure time: 5 days
In short: (§1)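 A line counted only if its three screens reached replicate Pearson r >0.7 and median Z' >0.3. Tumour cells in log phase were seeded at 250–500 per well in 384-well plates and, after 24 hours, kept in continuous contact with inhibitors at 0.5, 1, 5, 10, 50, 100, 500 and 1000 nM for five days. Surviving fraction was taken from CellTiter-Glo luminescence relative to the median of DMSO-only wells.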

[2] = compound: CC(=O)c1c(C)c2cnc(Nc3ccc(N4CCNCC4)cn3)nc2n(C2CCCC2)c1=O; test: as above; settings: exposure time: 5 days
In short: as §1

Test System	surviving fraction ([1]; 0.5 nM)	surviving fraction ([1]; 1 nM)	surviving fraction ([1]; 5 nM)	surviving fraction ([1]; 10 nM)	surviving fraction ([1]; 50 nM)	surviving fraction ([1]; 100 nM)	surviving fraction ([1]; 500 nM)	surviving fraction ([1]; 1000 nM)	surviving fraction ([2]; 0.5 nM)	surviving fraction ([2]; 1 nM)	surviving fraction ([2]; 5 nM)	surviving fraction ([2]; 10 nM)	surviving fraction ([2]; 50 nM)	surviving fraction ([2]; 100 nM)	surviving fraction ([2]; 500 nM)	surviving fraction ([2]; 1000 nM)
SUM159 BREAST	1.1 ± 0.026	1.1 ± 0.034	1.09 ± 0.02	1.06 ± 0.025	1.08 ± 0.014	1.04 ± 0.031	1.03 ± 0.036	1.036 ± 0.0092	0.932 ± 0.26	0.942 ± 0.23	0.951 ± 0.18	0.893 ± 0.28	0.916 ± 0.3	0.842 ± 0.43	0.943 ± 0.27	0.925 ± 0.28
MDAMB231 BREAST	0.989 ± 0.026	0.987 ± 0.026	1.02 ± 0.02	1.03 ± 0.024	1.06 ± 0.027	1.06 ± 0.037	1.06 ± 0.018	1.04 ± 0.037	0.994 ± 0.01	1.03 ± 0.032	1.03 ± 0.014	1.01 ± 0.031	1.045 ± 0.0069	1.02 ± 0.021	0.905 ± 0.013	0.888 ± 0.023
HS578T BREAST	0.972 ± 0.039	0.906 ± 0.078	0.965 ± 0.095	0.878 ± 0.12	0.996 ± 0.13	0.819 ± 0.075	1.07 ± 0.1	0.899 ± 0.23	0.985 ± 0.087	1.09 ± 0.068	1.02 ± 0.11	1.02 ± 0.048	1.11 ± 0.15	1.14 ± 0.19	0.949 ± 0.071	1.13 ± 0.082
COLO320DM LARGE INTESTINE	1.17 ± 0.07	1.21 ± 0.051	1.13 ± 0.081	1.1 ± 0.026	1.14 ± 0.085	1.2 ± 0.1	1.05 ± 0.14	1.06 ± 0.094	1.084 ± 0.0093	1.08 ± 0.04	1.12 ± 0.038	1.1 ± 0.039	1.08 ± 0.065	1.05 ± 0.048	0.78 ± 0.061	0.735 ± 0.039
OS25HAL BONE	1.04 ± 0.052	1.04 ± 0.041	1.06 ± 0.035	1.09 ± 0.066	1.09 ± 0.069	1.15 ± 0.019	1.08 ± 0.069	1.05 ± 0.029	1.03 ± 0.032	1.01 ± 0.0072	1.02 ± 0.011	1.04 ± 0.013	1.11 ± 0.013	1.05 ± 0.046	1.04 ± 0.054	0.982 ± 0.029
HMLE3 BREAST	1.11 ± 0.075	1.03 ± 0.016	1.07 ± 0.016	1.08 ± 0.031	1.04 ± 0.051	0.963 ± 0.07	0.904 ± 0.1	0.843 ± 0.083	1.05 ± 0.084	1.08 ± 0.081	1.05 ± 0.026	1.03 ± 0.043	1.1 ± 0.099	0.962 ± 0.086	0.925 ± 0.12	0.933 ± 0.066
SUM149.B1*.S BREAST	1.11 ± 0.044	1.1 ± 0.027	1.11 ± 0.021	1.1 ± 0.023	1.1 ± 0.026	1.1 ± 0.06	1.03 ± 0.034	0.98 ± 0.032	1.13 ± 0.034	1.07 ± 0.013	1.11 ± 0.018	1.07 ± 0.019	1.19 ± 0.056	1.22 ± 0.058	1.139 ± 0.011	1.08 ± 0.021
T47D BREAST	1.08 ± 0.027	1.05 ± 0.064	1.07 ± 0.061	1.03 ± 0.029	1.13 ± 0.015	1.083 ± 0.01	1.065 ± 0.0084	1.06 ± 0.021	1.05 ± 0.019	1.039 ± 0.0056	1.09 ± 0.022	1.06 ± 0.022	1.17 ± 0.014	1.08 ± 0.045	1.16 ± 0.042	1.11 ± 0.028
HOSMNG BONE	1.01 ± 0.035	0.993 ± 0.0089	0.971 ± 0.092	1.03 ± 0.073	1.05 ± 0.085	1.14 ± 0.026	1.09 ± 0.091	1.07 ± 0.021	1.03 ± 0.021	0.978 ± 0.16	1.02 ± 0.042	1 ± 0.048	1.07 ± 0.072	1.05 ± 0.18	1.07 ± 0.094	1.06 ± 0.16
MDAMB134 BREAST	0.881 ± 0.014	0.974 ± 0.067	0.775 ± 0.21	0.873 ± 0.0099	1.2 ± 0.2	1.13 ± 0.023	1 ± 0.067	1.1 ± 0.064	1.031 ± 0.0085	1.07 ± 0.023	1.1 ± 0.013	1.07 ± 0.04	1.154 ± 0.0057	1.26 ± 0.22	1.28 ± 0.12	1.25 ± 0.11
